# Tests used:
# [1] = tested on: SOCE of Jurkat T cells; test: SOCE inhibition in thapsigargin-treated Jurkat cells (Indo-1 cytosolic calcium); format: cell-based; conditions: for Ki: SOCE, compound added 30 s before reintroduction of calcium; for concentration below which only SOCE is inhibited (no effect on SERCA and IP3R): selectivity versus SERCA and IP3R
# Procedure: The Jurkat T lymphocyte line was mainly used for characterizing the effect of the molecules on SOCE. The Indo-1 ratiometric probe was used to visualize cytosolic calcium variations. For this, the cells in culture were centrifuged and then resuspended and incubated in PBS (Phosphate Buffered Saline) medium supplemented with 1 mg/ml of albumin and 4 μM of Indo-1-AM for 45 mim at ambient temperature and in the dark.
# The SOCE phenomenon was evaluated conventionally. Jurkat cells were placed in calcium-free HBS medium and stimulated with 1 μM of thapsigargin (TG, arrow in FIG. 2A) for 600 s in order to allow calcium release from the ER and SOCC channel opening(=CRAC). The addition of 1 mM of CaCl2 to the medium allows massive calcium ion entry through the SOCCs and an increase in the concentration of cytosolic calcium ([Ca^2+]cyt).
# The dose-response curves were established after addition of 2-APB or of an analog thereof 30 seconds before the reintroduction of calcium.
# [2] = tested on: SERCA; test: 45Ca2+ loading (SERCA activity) in permeabilized L15 cells; format: biochemical; conditions: for Ki: permeabilized cells
# Procedure: (§1) To test the selectivity of certain molecules on SOCE compared to IP3R and SERCA, the L15 line stably expressing type 1 IP3R was used. Briefly, the cells were permeabilized with saponin and incubated in the presence of ^45Ca^2+ in a medium containing ATP allowing SERCA activity and Ca' ion entry into the ER. The addition of TG makes it possible to induce release from the ER and therefore to measure the amount of Ca^2+ ions that have left the ER, which is itself directly linked to the SERCA activity. The addition of IP3 allows direct measurement of the amount of Ca' ions leaving the ER by IP3R opening.
# (§2) The ^45Ca^2+ loading and IP3-dependent release measurements were carried out on permeabilized cells under one-way conditions.
# [3] = molecular target: T1, IP3R (Mus musculus, UniProt P11881); test: IP3-dependent 45Ca2+ release in permeabilized L15 cells; format: biochemical
# T1 construct: expressed in transfected cells; host or cells: L15 cell line, permeabilized with saponin
# T1 sequence (P11881 whole entry): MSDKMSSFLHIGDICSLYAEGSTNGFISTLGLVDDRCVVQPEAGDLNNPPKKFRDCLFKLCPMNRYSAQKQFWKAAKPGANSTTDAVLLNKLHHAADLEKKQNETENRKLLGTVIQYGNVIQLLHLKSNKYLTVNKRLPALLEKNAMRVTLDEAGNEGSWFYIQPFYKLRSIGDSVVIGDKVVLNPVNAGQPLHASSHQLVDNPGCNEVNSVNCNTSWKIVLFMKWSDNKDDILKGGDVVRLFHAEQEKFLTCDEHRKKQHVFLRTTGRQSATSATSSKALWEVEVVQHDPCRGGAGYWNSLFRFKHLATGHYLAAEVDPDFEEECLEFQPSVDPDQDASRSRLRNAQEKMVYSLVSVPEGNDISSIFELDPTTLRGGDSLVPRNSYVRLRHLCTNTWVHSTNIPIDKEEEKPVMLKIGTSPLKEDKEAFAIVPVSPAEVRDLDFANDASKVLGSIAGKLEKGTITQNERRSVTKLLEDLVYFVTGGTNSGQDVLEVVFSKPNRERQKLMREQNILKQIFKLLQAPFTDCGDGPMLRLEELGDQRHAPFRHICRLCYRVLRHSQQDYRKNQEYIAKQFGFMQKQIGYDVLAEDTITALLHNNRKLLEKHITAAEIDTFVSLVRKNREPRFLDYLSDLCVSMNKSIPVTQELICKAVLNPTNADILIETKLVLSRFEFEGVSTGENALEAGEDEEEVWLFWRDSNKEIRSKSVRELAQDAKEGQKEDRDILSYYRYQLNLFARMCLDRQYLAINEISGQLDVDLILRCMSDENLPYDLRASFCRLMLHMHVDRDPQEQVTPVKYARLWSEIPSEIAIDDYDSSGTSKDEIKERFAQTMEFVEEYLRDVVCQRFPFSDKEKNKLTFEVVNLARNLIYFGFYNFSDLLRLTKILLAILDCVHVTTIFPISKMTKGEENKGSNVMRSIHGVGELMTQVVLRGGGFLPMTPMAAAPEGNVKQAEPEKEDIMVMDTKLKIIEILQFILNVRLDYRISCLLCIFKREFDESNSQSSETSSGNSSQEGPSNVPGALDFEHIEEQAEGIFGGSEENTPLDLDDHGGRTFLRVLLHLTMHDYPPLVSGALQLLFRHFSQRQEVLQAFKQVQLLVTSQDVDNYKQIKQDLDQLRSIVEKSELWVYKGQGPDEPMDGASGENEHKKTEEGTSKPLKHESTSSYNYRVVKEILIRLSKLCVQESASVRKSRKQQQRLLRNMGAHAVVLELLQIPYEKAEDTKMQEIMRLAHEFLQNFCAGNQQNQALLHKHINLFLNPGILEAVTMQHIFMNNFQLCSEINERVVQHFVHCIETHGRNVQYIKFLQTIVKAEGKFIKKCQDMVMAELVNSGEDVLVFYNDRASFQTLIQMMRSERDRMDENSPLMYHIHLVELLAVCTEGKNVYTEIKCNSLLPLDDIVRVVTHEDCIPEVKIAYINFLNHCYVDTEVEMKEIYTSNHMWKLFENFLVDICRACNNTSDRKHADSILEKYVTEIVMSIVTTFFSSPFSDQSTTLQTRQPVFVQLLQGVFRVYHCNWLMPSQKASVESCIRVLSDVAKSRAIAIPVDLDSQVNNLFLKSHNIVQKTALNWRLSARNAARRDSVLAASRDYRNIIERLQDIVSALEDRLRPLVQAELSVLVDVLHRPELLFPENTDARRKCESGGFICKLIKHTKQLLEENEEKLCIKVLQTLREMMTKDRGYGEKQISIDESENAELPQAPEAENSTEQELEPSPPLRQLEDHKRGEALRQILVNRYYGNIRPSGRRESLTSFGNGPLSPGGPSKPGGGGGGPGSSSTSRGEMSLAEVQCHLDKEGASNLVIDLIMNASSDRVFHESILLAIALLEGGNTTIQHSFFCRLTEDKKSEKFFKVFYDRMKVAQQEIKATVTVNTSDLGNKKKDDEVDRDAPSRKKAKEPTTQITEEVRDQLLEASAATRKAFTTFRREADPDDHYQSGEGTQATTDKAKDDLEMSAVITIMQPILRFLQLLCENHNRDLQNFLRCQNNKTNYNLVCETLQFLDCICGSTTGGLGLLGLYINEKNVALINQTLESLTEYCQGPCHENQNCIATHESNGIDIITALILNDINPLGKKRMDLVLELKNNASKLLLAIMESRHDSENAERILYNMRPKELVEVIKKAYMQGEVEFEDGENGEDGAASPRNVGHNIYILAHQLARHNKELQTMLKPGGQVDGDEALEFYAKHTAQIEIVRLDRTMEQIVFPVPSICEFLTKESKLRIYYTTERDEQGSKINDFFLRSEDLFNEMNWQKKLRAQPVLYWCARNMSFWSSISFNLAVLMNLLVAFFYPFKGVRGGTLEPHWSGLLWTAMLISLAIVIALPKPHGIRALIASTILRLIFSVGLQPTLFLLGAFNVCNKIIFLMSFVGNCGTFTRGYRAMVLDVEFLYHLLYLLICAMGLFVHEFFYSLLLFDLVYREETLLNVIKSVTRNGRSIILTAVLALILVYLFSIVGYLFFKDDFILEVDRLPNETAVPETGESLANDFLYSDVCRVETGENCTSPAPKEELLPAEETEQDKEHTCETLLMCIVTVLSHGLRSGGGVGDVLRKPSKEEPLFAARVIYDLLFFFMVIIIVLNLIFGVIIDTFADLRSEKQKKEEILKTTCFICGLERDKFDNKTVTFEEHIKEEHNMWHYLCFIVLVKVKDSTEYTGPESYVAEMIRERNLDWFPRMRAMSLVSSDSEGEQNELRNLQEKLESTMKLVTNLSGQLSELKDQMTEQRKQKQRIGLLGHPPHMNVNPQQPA
# Procedure: as §1, §2
# [4] = tested on: PHA-stimulated Jurkat cells; test: IL-2 synthesis by PHA-stimulated Jurkat cells (Elisa); format: cell-based
# Procedure: In order to measure the interleukin-2 (IL-2) synthesis in 24 h after stimulation with 10 μg/ml of phytohemagglutinin (PHA) in the presence or absence of certain molecules, the Jurkat cells are centrifuged and the supernatant containing the IL-2 is collected. The 11-2 concentration is measured by Elisa (R&D systems kit).
# The concentration of neosynthesized IL-2 was measured in the culture medium of phytohemagglutinin (PHA)-stimulated Jurkat cells after 24 h, in the presence of increasing concentrations of compound P11. […] Conversely, stimulation with PHA allows the detection of approximately 100 pg/ml of IL-2 (103 ±4 pg/ml, FIG. 5A). The addition of increasing concentrations of P11 at the same time as the stimulation by PHA leads to a gradual decrease in IL-2 synthesis to 26±6 pg/ml for 1 μM of P11 (-74%, FIG. 5B).
# [5] = tested on: caspase-3 activity of Jurkat cells; test: Caspase-3 activity in Jurkat cells (Ac-DEVD-AFC substrate); format: cell-based
# Procedure: The caspase-3 activity is measured with a fluorescent kit using the Ac-DEVD-AFC substrate. The Jurkat cells are incubated for 24 h with PHA in the presence or absence of certain molecules. The cells are then lyzed with RIPA medium, and the amounts of proteins are then measured with a commercial kit (Biorad). The cell lysates are then diluted in the following reaction medium: 200 mM Hepes, pH 7.4, 1 mM EDTA, 20% sucrose and 20 mM dithiothreitol, then incubated with 20 μM of the fluorogenic substrate for 45 min […] at 37° C. The appearance of the fluorescent AFC product is measured by spectrofluorimetry (excitation at 405 nm, emission at 505 nm).
# (§3) The caspase-3 activity was then evaluated by means of an Ac-DEVD-AFC fluorogenic substrate, and apoptosis was evaluated by means of a TUNEL assay.
# [6] = tested on: Mn2+ influx via the SOCCs; test: Mn2+ quenching of indo-1 in TG-treated Jurkat cells; format: cell-based; conditions: 1 μM
# Procedure: In order to determine whether compound P11 has an action on SOCE and not on calcium efflux mechanisms, a quenching experiment with Mn^2+ was carried out by means of the indo-1 molecule. The Mn^2+ ions enter the cells via the SOCCs, but cannot be pumped into the extracellular membrane by the plasma membrane calcium-dependent ATPases (plasma membrane Ca^2+ ATPases, or PMCA) or the sodium/calcium exchanger (Na^+/Ca^2+ exchanger, or NCX) or sent back into the lumen of the ER by the sarcoplasmic-endoplasmic reticulum Ca^2+ ATPases (or SERCAs). Once in the cell, Mn^2+ binds to indo-1 and quenches its fluorescence measured at 430 nm. An increase in the amplitude of the Mn^2+ influx is therefore associated with an increase in the indo-1 quenching rate, and vice versa.
# After 10 minutes of treatment with TG in order to open the SOCCs, 100 μM of MnCl2 were added. A degree of quenching of −0.89±0.05% Fo/s was observed (FIG. 3A). In the presence of increasing concentrations of P11 added 30 seconds before the addition of Mn^2+ ions, the degree of quenching decreased and reached a blocking of approximately 90% at 1 μM (−0.09±0.01, FIG. 3A).
# [7] = tested on: SOCE in MDA-MB231 cells (hormone-independent breast cancer cells); test: SOCE inhibition in MDA-MB231 cells; format: cell-based; conditions: FIG. 3B
# Procedure: (§4) The Jurkat T lymphocyte line was mainly used for characterizing the effect of the molecules on SOCE. The Indo-1 ratiometric probe was used to visualize cytosolic calcium variations. For this, the cells in culture were centrifuged and then resuspended and incubated in PBS (Phosphate Buffered Saline) medium supplemented with 1 mg/ml of albumin and 4 μM of Indo-1-AM for 45 mim at ambient temperature and in the dark. The cells were then again centrifuged and resuspended in the HBS (Hepes-Buffered Saline) recording medium having the composition (in mM): 135 mM NaCl, 5.9 mM KCl, 1.2 mM MgCl2, 11.6 mM Hepes, 11.5 mM glucose, pH adjusted to 7.3 with NaOH. 0.5 to 1 million cells are then placed in the cuvette of a Varian Cary Eclipse spectrofluorimeter and the Indo-1 probe is excited at 360 nm, with emission of fluorescence at 405 and 480 nm. The ratio of fluorescence at 405 and 480 nm is directly proportional to the [Ca^2+]cyt.
# (§5) The lines of monocyte origin U937, B lymphocyte origin (DG75) and breast cancer origin (MDA-MB231) were also used with the same protocol.
# [8] = tested on: PHA-stimulated Jurkat cells; test: TUNEL assay of DNA fragmentation in PHA-stimulated Jurkat cells; format: cell-based; conditions: concentrations greater than 10 nM
# Procedure: The Roche TUNEL kit was used to observe the nuclear DNA fragmentation and therefore cell apoptosis.
# as §3
# [9] = tested on: SOCE in DG75 cells (B lymphocytes); test: SOCE inhibition in DG75 cells; format: cell-based
# Procedure: as §4, §5
# [10] = tested on: Jurkat cells; test: Cell death of Jurkat cells; format: cell-based
# [11] = tested on: SOCE in U937 cells (monocytes); test: SOCE inhibition in U937 cells; format: cell-based; conditions: FIG. 3B
# Procedure: as §4, §5
# [12] = tested on: Orai1-SOCE in leukocytes; conditions: cited from earlier work
# [13] = PHA, increasing amounts of P11, FIG. 5C
smiles,measurement,setting,value
COc1ccc(B(OCCN)c2ccc(OC)cc2)cc1 [Compound P2],Ki,[1]; Jurkat cells,3.5 ± 0.65 µM
Cc1ccc(B(OCCN)c2ccc(C)cc2)cc1 [Compound P3],Ki,[1]; Jurkat cells,3.5 ± 0.6 µM
CC(C)(C)c1ccc(B(OCCN)c2ccc(C(C)(C)C)cc2)cc1 [Compound P9],Ki,[2],6 ± 0.3 µM
same,Ki,[1]; Jurkat cells,0.641 ± 0.103 µM
same,concentration below which only SOCE is inhibited (no effect on SERCA and IP3R),[1],Below 3 μM
same,inhibition of IP3R activity (in words),[3]; FIG. 4,did not significantly inhibit
"NCCOB(c1ccc(-c2ccccc2)cc1)c1ccc(-c2ccccc2)cc1 [Compound P11, 2-(dibiphenyl-4-ylboryloxy)ethamine]",ratio Ki SERCA versus Ki SOCE,[2]; SERCA 7.4 μM vs SOCE 75 nM,100 times
same,inhibition of SERCA,[2]; concentration greater than 30 μM,89%
same,Ki,[2],7.4 µM
same,IL-2 concentration in culture medium,"[4]; 1 μM with 10 μg/ml PHA, 24 h",26 ± 6 pg/mL
same,change in IL-2 synthesis,"[4]; 1 μM with PHA, 24 h",-74%
same,IL-2 synthesized by the remaining living cells,[4]; [13],39.2 ± 8.6 pg/mL
same,decrease of IL-2 synthesis capacity of remaining living cells,[4]; [13],approximately 63%
same,caspase-3 activity,"[5]; 1 μM with PHA, 24 h",3332±113 AU
same,increase of caspase-3 activity (factor),"[5]; with PHA, from 10 nM, maximum effect",3
same,"caspase-3 activity, compound alone","[5]; without PHA, up to 1 μM",does not induce an increase in caspase-3 activity
same,blocking of Mn2+ quenching,[6],approximately 90%
same,degree of indo-1 quenching by Mn2+,"[6]; added 30 s before 100 μM MnCl2, after 10 min TG",−0.09±0.01 % Fo/s
same,Ki,[7],0.05 ± 0.005 µM
same,Ki,[1]; Jurkat cells,0.075 ± 0.021 µM
same,concentration below which only SOCE is inhibited (no effect on SERCA and IP3R),[1],less than 1 μM
same,cells containing fragmented DNA,[8],17.9±1.2%
same,fold increase in number of cells containing fragmented DNA,[8],4.5 fold
same,Ki,"[9]; DG75 cells (B lymphocytes), FIG. 3B",0.032 ± 0.002 µM
same,concentration at which total inhibition of SOCE is achieved,"[9]; FIG. 3B (other cell types: DG75, U937, MDA-MB231)",100 nM
same,inhibition at 100 µM,[3]; 100 μM,29 ± 9%
same,percentage of dead cells,[10]; 1 μM combined with PHA,33.2±1.3%
same,"toxic effect on the cells, compound alone",[10]; without PHA,did not exhibit any toxic effect
same,Ki,[11],0.04 ± 0.005 µM
NCCOB(c1ccc(Cl)cc1)c1ccc(Cl)cc1 [Compound P13],Ki,[1]; Jurkat cells,1.84 ± 0.1 µM
Cc1ccc(B(OCCN)c2ccc(C)c(Cl)c2)cc1Cl [Compound P15],Ki,[1]; Jurkat cells,0.294 ± 0.074 µM
NCCOB(c1ccc(F)cc1)c1ccc(F)cc1 [Compound P14],Ki,[1]; Jurkat cells,5.4 ± 0.3 µM
Cc1ccc(B(OCCN)c2ccc(C)c(C)c2)cc1C [Compound P7],Ki,[1]; Jurkat cells,0.751 ± 0.097 µM
"NCCOB(c1ccccc1)c1ccccc1 [Compound 2-APB, 2-Aminoethoxydiphenyl borate, reference compound]",concentration at which Orai1-SOCE is inhibited,[12],greater than 30 μM
same,effect on calcium entry at 5 μM,"[1]; Jurkat cells, 5 μM, FIG. 2A",high potentiation of calcium entry
same,effect on calcium entry at 50 μM,"[1]; Jurkat cells, 50 μM, FIG. 2A",virtually total inhibition
Cc1cccc(B(OCCN)c2cccc(C)c2)c1 [Compound P5],Ki,[1]; Jurkat cells,2.1 ± 0.6 µM
COc1cccc(B(OCCN)c2cccc(OC)c2)c1 [Compound P4],maximum inhibition of SOCE,[1]; Jurkat cells,80%
same,Ki,[1]; Jurkat cells,75 ± 21 µM
CC(C)(C)c1ccc(B(OCCN)c2ccc(C(C)(C)C)cc2)cc1 [Compound P8],Ki,[1]; Jurkat cells,0.35 ± 0.04 µM
